Results taken from patent US20260138957A1, “UREA-LINKED 2-AMINOIMIDAZOLE DIMER POTENTIATORS” (UNIVERSITY OF NOTRE DAME DU LAC, priority 2022, published 2026).
Values after ≈ are worked out from the molar mass of the structure shown. Like-named read-outs stand apart in the source and are kept apart here.

Columns and labels:
[1] = test system: A. baumannii strain 5075 (AB5075); assay: Standalone MIC against AB5075 (compound or antibiotic alone); type: cell-based, Acinetobacter baumannii; conditions: Acinetobacter baumannii; compound alone, AB5075
Source text: Dimers were first analyzed for standalone toxicity against AB5075.

[2] = test system: A. baumannii strain 5075 (AB5075); assay: Clarithromycin potentiation against AB5075 (CLR MIC in presence of adjuvant); type: cell-based, Acinetobacter baumannii; conditions: for CLR MIC / Fold Reduction of CLR MIC / Clarithromycin (CLR) MIC: AB5075
[3] = test system: AB 5075; assay: Colistin MIC in absence or presence of compounds against AB 5075; type: cell-based, Acinetobacter baumannii
Source text: However, dropping LOS comes with fitness costs such as reduced growth rates, lower virulence, and increased sensitivity towards certain antibiotics.

[4] = test system: panel of A. baumannii isolates; assay: CLR potentiation against panel of A. baumannii isolates; type: cell-based, Acinetobacter baumannii; conditions: 25 AB strains, adjuvant at 10 μM (4.8 μg/mL) or less
[5] = test system: AB5075; assay: Potentiation of azithromycin, erythromycin and rifampin against AB5075; type: cell-based, Acinetobacter baumannii
[6] = test system: K. pneumoniae (strain KP 2146); assay: Standalone MIC against KP 2146; type: cell-based, Klebsiella pneumoniae; conditions: 9k alone
[7] = test system: P. aeruginosa (PAO1); assay: Standalone MIC against PAO1; type: cell-based, Pseudomonas aeruginosa; conditions: 9k alone
[8] = test system: Escherichia coli (EC 25922); assay: Standalone MIC against EC 25922; type: cell-based; conditions: 9k alone, read-out: Compound MIC
[9] = test system: K. pneumoniae (strain KP 2146); assay: CLR MIC in combination with 9k against KP 2146; type: cell-based, Klebsiella pneumoniae
[10] = test system: P. aeruginosa (PAO1); assay: CLR MIC in combination with 9k against PAO1; type: cell-based, Pseudomonas aeruginosa
[11] = test system: Escherichia coli (EC 25922); assay: CLR MIC in combination with 9k against EC 25922; type: cell-based
[12] = test system: K. pneumoniae 2146; assay: Combination with RIF against K. pneumoniae 2146; type: cell-based, Klebsiella pneumoniae; conditions: K. pneumoniae 2146, compared with the parent dimers
[13] = test system: A. baumannii; assay: CLR adjuvant activity with exogenous LOS added to the media; type: cell-based, Acinetobacter baumannii; conditions: LOS from AB5075 at 0.2 mg/mL or 0.5 mg/mL
Protocol: First, we examined the impact that addition of MgCl2 had on activity. Divalent cations, such as Mg^2+, are known to stabilize the outer membrane of gram-negative bacteria and the activity of membrane disruptors are known to be muted/abrogated by the addition of such cations. When the media was supplemented with MgCl2 (20 mM final concentration), activity was essentially abolished. As suppression of activity could conceivably originate from either blocking the compound's mechanism of action or simply making the membrane more impermeable that leads to the inability of the compound to penetrate the outer membrane, we next studied the impact that the addition of exogenous LOS had upon activity.

[14] = test system: membrane integrity; assay: BacLight assay of membrane integrity; type: cell-based; conditions: in comparison to untreated control
Source text: We then quantified how compound 9k impacted membrane integrity using the BacLight assay. Compound 9k had essentially no impact on the membrane in comparison to untreated control and produced a −1.2±2.2% change in membrane permeability.

[15] = Microsomal (metabolic) stability; type: in vitro ADME; conditions: 60 minutes
[16] = Plasma stability; type: in vitro ADME; conditions: 4 hours
[17] = test system: red blood cells; assay: Hemolysis assay; type: cell-based; conditions: 1% Triton X as 100% lysis control
[18] = test system: HepG2 cells; assay: Cytotoxicity, XTT assay with HepG2 cells; conditions: read-out: IC50, HepG2 cells; mammalian cell toxicity
[19] = test system: AB 5075; conditions: colistin alone, earlier work; cited from earlier work
[20] = AB5075, adjuvant at 7.5 μM (3.6 μg/mL)

Nc1nc(-c2ccc(NC(=O)Nc3cccc(-c4c[nH]c(N)n4)c3F)cc2F)c[nH]1 [Compound 9k, 1-(3-(2-amino-1H-imidazol-4-yl)-2-fluorophenyl)-3-(4-(2-amino-1H-imidazol-4-yl)-3-fluorophenyl)urea]
MIC [1]: > 200 µM
lowest concentration at which the adjuvant suppressed the clarithromycin MIC to 2.0 μg/mL ([2]; AB5075, value in brackets): 0.72 µg/mL
CLR MIC ([2]; adjuvant at 1.5 μM): 2 µg/mL
Fold Reduction of CLR MIC ([2]; adjuvant at 1.5 μM): 16 fold
CLR MIC ([2]; adjuvant at 2.5 μM): 0.125 µg/mL
Fold Reduction of CLR MIC ([2]; adjuvant at 2.5 μM): 256 fold
Clarithromycin (CLR) MIC ([2]; adjuvant at 5 μM): 0.0625 µg/mL
Fold Reduction of CLR MIC ([2]; adjuvant at 5 μM): 512 fold
Clarithromycin (CLR) MIC ([2]; adjuvant at 7.5 μM): ≤0.0625 µg/mL
Fold Reduction of CLR MIC ([2]; adjuvant at 7.5 μM): ≥512 fold
Clarithromycin (CLR) MIC ([2]; adjuvant at 10 μM): ≤0.0625 µg/mL
Fold Reduction of CLR MIC ([2]; adjuvant at 10 μM): ≥512 fold
Clarithromycin (CLR) MIC ([2]; adjuvant at 20 μM): ≤0.0625 µg/mL
Fold Reduction of CLR MIC ([2]; adjuvant at 20 μM): ≥512 fold
Clarithromycin (CLR) MIC ([2]; adjuvant at 30 μM): ≤0.0625 µg/mL
Fold Reduction of CLR MIC ([2]; adjuvant at 30 μM): ≥512 fold
potentiation of colistin (in words) ([3]; AB5075): did not potentiate the activity
Colistin MIC ([3]; adjuvant at 30 μM, AB5075): 2 µg/mL
lowering of CLR MIC values [4]: at least four-fold
fold decrease of RIF MIC ([5]; AB5075, adjuvant at 5 μM (2.4 μg/mL)): 32 fold
fold decrease of AZM MIC [5, 20]: at least 64 fold
fold decrease of ERY MIC [5, 20]: at least 64 fold
fold decrease of RIF MIC ([5]; AB5075, adjuvant at 10 μM): 32 fold
activity in combination with AZM, ERM and RIF (in words) ([5]; AB5075, adjuvant at ≤30% their MIC): significant activity
Compound MIC [6]: >200 µM
Compound MIC [7]: >200 µM
MIC [8]: 12.5 µM (≈ 5.13 µg/mL)
fold potentiation of CLR [9]: at least 256 fold
CLR MIC + 9k ([9]; 9k at 7.5 μM): 16 µg/mL
CLR MIC + 9k ([9]; 9k at 10 μM): 2 µg/mL
CLR MIC + 9k ([9]; 9k at 30 μM): 1 µg/mL
fold potentiation of CLR [10]: at least 256 fold
CLR MIC + 9k ([10]; 9k at 20 μM): 4/8
CLR MIC + 9k ([10]; 9k at 30 μM): 0.5 µg/mL
fold potentiation of CLR [11]: at least 256 fold
CLR MIC + 9k ([11]; 9k at 2.5 μM): 32 µg/mL
CLR MIC + 9k ([11]; 9k at 3.0 μM): 4 µg/mL
CLR MIC + 9k ([11]; 9k at 3.75 μM): 0.125 µg/mL
potentiation of RIF (in words) [12]: greater potentiation activity at lower concentrations
CLR adjuvant activity with exogenous LOS (in words) [13]: no loss of adjuvant activity
change in membrane permeability [14]: −1.2±2.2%
microsomal stability (in words) [15]: steady concentration over 60 minutes
plasma stability (in words) [16]: steady concentration over 4 hours
lytic effect on red blood cells (in words) ([17]; compound at 10 μM in combination with 0.0625 μg/mL clarithromycin): little to no lytic effect
lytic effect on red blood cells (in words) ([17]; compound): little to no lytic effect
IC50 [18]: 431 µM

colistin [reference compound]
Colistin MIC ([3]; colistin alone): 1 µg/mL
Colistin MIC ([3]; colistin alone, AB 5075): 1 µg/mL
Colistin MIC [19]: 1 µg/mL
